Source: patent publication US20120107916A1, “METHODS AND COMPOSITIONS FOR AFFECTING THE DIFFERENTIATION OF CLOSTRIDIA IN CULTURE” (priority 2009, published 2012)

Tests used:
[1] = tested on: Clostridium acetobutylicum ATCC 824; assay: Final pH of cell-free culture supernatants of sequential batch cultures; format: cell-based
Experimental: (§1) Bacterial strains and media. Clostridium acetobutylicum ATCC 824 and C. beijerinckii NCIMB 8052 are available from several commercial microbial culture collections including the American Type Culture Collection (ATCC), Manassas, Va., USA. The strains were grown at 30° C. or 37° C. in YE broth, which contained, per liter: 5.0 g yeast extract, 2.5 g casamino acids, 1.0 g L-asparagine, 0.5 g cysteine.HCl, 56 mg K2HPO4, 56 mg KH2PO4, 82 mg anhydrous MgSO4, 8 mg FeSO4.H2O, 6 mg MnSO4.H2O and 10 g glucose. Alternatively, strains were grown in YEPG broth, which was identical to YE expect that K2HPO4 and KH2PO4 were increased to 145 mg/L each and glucose was increased to 60 g/L. The pH of the media was adjusted to 7.2 using 45% KOH prior to sterilization by autoclaving. Media were solidified by addition of 1.5% Bacteriological Agar, Actimedia Manufacturers, Inc., Lansing, Mich. All cultures were grown in anaerobic conditions using the AnaeroPack System, Mitsubishi Gas Chemical Co., Inc., Japan, and GasPak EZ Gas Generating Sachets, Becton, Dickinson and Co., Sparks, Md. Spore stocks were kept at room temperature on agar-solidified media and were activated by suspending spores in 0.5 mL to 1.0 mL of medium followed by heating for 10 min at 80° C. before inoculation into growth medium.
(§2) Growth and pH measurements. Growth of bacterial cultures was measured spectrophotometrically using optical density at 600 nm and pH of cell-free culture supernatants was measured using a hand-held Shindengen ISFET pH Meter KS501, Shendengen Electric Manufacturing Co., Ltd., Bannockburn, Ill.
(§3) Effect of peptide SEQ ID NO:143 addition on sequential batch cultures of C. acetobutylicum ATCC 824 grown at 30° C. Spores of C. acetobutylicum ATCC 824 were germinated and grown overnight at 30° C. under anaerobic conditions in YEPG medium. After about 24 h of growth, 75 μL of the culture was transferred (transfer 1) to each of four flasks that contained 10 mL of YEPG and either had no treatment or were treated with peptide SEQ ID NO:143 (see Table 8 and FIG. 1) at 1 nM, 10 nM or 50 nM. Thereafter, 75 μL of each culture was transferred, at the same time, every 24-48 h to 10 mL of fresh YEPG that contained the same peptide treatment or no treatment. Each culture was stopped after 96 hours of incubation and optical density, pH and ceric ion reactive chemicals were measured. Sequential batch culturing was continued through 5 transfers at which point the untreated culture and those treated with 1 nM and 10 nM of peptide SEQ ID NO:143 had stopped growing (Table 9).
(§4) Effect of peptide SEQ ID NO:143 addition on sequential batch cultures of C. acetobutylicum ATCC 824 grown at 37° C. Spores of C. acetobutylicum ATCC 824 were germinated and grown overnight at 37° C. under anaerobic conditions in YEPG medium that either contained 50 nM of peptide SEQ ID NO:143 or no added peptide. After about 24 h of growth, 10 μL of the untreated culture was transferred (transfer 1) to each of two flasks that contained 10 mL of YEPG with either no treatment or with 50 nM peptide SEQ ID NO:143. At the same time, 10 μL of the culture that was germinated in the presence of peptide SEQ ID NO:143 was also transferred to 10 mL of YEPG that contained 50 nM of peptide SEQ ID NO:143. Thereafter, 10 μL of each culture was transferred, at the same time, every 24-48 h to 10 mL of fresh YEPG that contained the same peptide treatment or no treatment. Each culture was stopped after 72 hours if incubation and optical density, pH and ceric ion reactive chemicals were measured. Sequential batch culturing was continued through 3 transfers at which point the untreated culture and the culture that was germinated and transferred in 50 nM of peptide were still growing, while the culture that was treated with peptide after germination had stopped growing (Table 15 and FIG. 7).

[2] = tested on: Clostridium acetobutylicum ATCC 824; assay: Growth (optical density at 600 nm) of sequential batch cultures; format: cell-based
Experimental: as §1, §2, §3, §4

[3] = tested on: C. acetobutylicum; assay: Estimate of extended serial propagation in continuous culture from sequential batch transfers; parameters: species or system Clostridium acetobutylicum; conditions: dilution rate 0.05/hour, from about 140 hours without peptide
Experimental: Under these experimental conditions, and knowledge of the growth of C. acetobutylicum in culture, it was determined that each sequential transfer was equivalent to about seven bacterial generations ([…], Applied and Environmental Microbiology 59:4198-4202, 1993). […] An estimate of extended serial propagation in continuous culture may be expressed as extended time in continuous culture by taking the dilution rate into account. In continuous culture, the time for one generation is equal to the inverse of the dilution rate.

[4] = 1 nM peptide, transfer 1, 96 h, 30° C.
[5] = 1 nM peptide, transfer 2, 96 h, 30° C.
[6] = 1 nM peptide, transfer 3, 96 h, 30° C.
[7] = 1 nM peptide, transfer 4, 96 h, 30° C.
[8] = 1 nM peptide, transfer 5, 96 h, 30° C.
[9] = 10 nM peptide, transfer 1, 96 h, 30° C.
[10] = 10 nM peptide, transfer 2, 96 h, 30° C.
[11] = 10 nM peptide, transfer 3, 96 h, 30° C.
[12] = 10 nM peptide, transfer 4, 96 h, 30° C.
[13] = 50 nM peptide added after germination, transfer 1, 72 h, 37° C.
[14] = 50 nM peptide added after germination, transfer 2, 72 h, 37° C.
[15] = 50 nM peptide added after germination, transfer 3, 72 h, 37° C.
[16] = 50 nM peptide, transfer 1, 96 h, 30° C.
[17] = 50 nM peptide, transfer 2, 96 h, 30° C.
[18] = 50 nM peptide, transfer 3, 96 h, 30° C.
[19] = 50 nM peptide, transfer 4, 96 h, 30° C.
[20] = 50-50: germinated and transferred in 50 nM peptide, transfer 1, 72 h, 37° C.
[21] = 50-50: germinated and transferred in 50 nM peptide, transfer 2, 72 h, 37° C.
[22] = 50-50: germinated and transferred in 50 nM peptide, transfer 3, 72 h, 37° C.
[23] = 50-50: spores germinated in 50 nM peptide, transfer 0 (germinated culture), 72 h, 37° C.

Substance: SYPGWSW [Peptide SEQ ID NO:143]
- Final pH of culture broths [1, 4]: 6.0
- Final pH of culture broths [1, 5]: 4.4
- Final pH of culture broths [1, 6]: 4.4
- Final pH of culture broths [1, 7]: 6.0
- Final pH of culture broths [1, 8]: 6.0
- Final pH of culture broths [1, 9]: 4.4
- Final pH of culture broths [1, 10]: 4.4
- Final pH of culture broths [1, 11]: 4.5
- Final pH of culture broths [1, 12]: 4.5
- Final pH of culture broths ([1]; 10 nM peptide, transfer 5, 96 h, 30° C., listed as SEQ ID NO: 143): 6.0
- Final pH of culture broths ([1]; 10 nM peptide, transfer 5, 96 h, 30° C., listed as SEQ ID NO:143): 5.9
- Final pH of culture broths [1, 13]: 4.4
- Final pH of culture broths [1, 14]: 6.0
- Final pH of culture broths [1, 15]: 5.5
- Final pH of culture broths [1, 16]: 4.4
- Final pH of culture broths [1, 17]: 4.6
- Final pH of culture broths [1, 18]: 4.5
- Final pH of culture broths [1, 19]: 4.4
- Final pH of culture broths ([1]; 50 nM peptide, transfer 5, 96 h, 30° C., listed as SEQ ID NO: 143): 4.3
- Final pH of culture broths ([1]; 50 nM peptide, transfer 5, 96 h, 30° C., listed as SEQ ID NO:143): remained low
- Final pH of culture broths [1, 20]: 4.5
- Final pH of culture broths [1, 21]: 3.8
- Final pH of culture broths [1, 22]: 4.6
- Final pH of culture broths [1, 23]: 4.1
- Last sequential transfer through which growth was allowed ([2]; 1 nM peptide, 30° C., untreated culture did not grow after the second transfer): third transfer
- Optical density at 600 nm of culture broths [2, 4]: 0.005
- Optical density at 600 nm of culture broths [2, 5]: 2.274
- Optical density at 600 nm of culture broths [2, 6]: 2.165
- Optical density at 600 nm of culture broths [2, 7]: 0.044
- Optical density at 600 nm of culture broths [2, 8]: 0.004
- Last sequential transfer through which growth was allowed ([2]; 10 nM peptide, 30° C.): fourth transfer
- Optical density at 600 nm of culture broths [2, 9]: 2.001
- Optical density at 600 nm of culture broths [2, 10]: 2.245
- Optical density at 600 nm of culture broths [2, 11]: 2.379
- Optical density at 600 nm of culture broths [2, 12]: 2.266
- Optical density at 600 nm of culture broths ([2]; 10 nM peptide, transfer 5, 96 h, 30° C.): 0.028
- Optical density at 600 nm of culture broths [2, 13]: 1.891
- Optical density at 600 nm of culture broths [2, 14]: 0.011
- Optical density at 600 nm of culture broths [2, 15]: 0.100
- Last sequential transfer through which growth was extended ([2]; 50 nM peptide, 30° C.): fifth transfer
- Optical density at 600 nm of culture broths [2, 16]: 1.879
- Optical density at 600 nm of culture broths [2, 17]: 2.089
- Optical density at 600 nm of culture broths [2, 18]: 2.313
- Optical density at 600 nm of culture broths [2, 19]: 2.187
- Optical density at 600 nm of culture broths ([2]; 50 nM peptide, transfer 5, 96 h, 30° C.): 2.173
- Number of sequential transfers compared with a culture without added peptide ([2]; 30° C., sequential batch cultures): at least four more times
- Optical density at 600 nm of culture broths [2, 20]: 1.715
- Optical density at 600 nm of culture broths [2, 21]: 1.858
- Optical density at 600 nm of culture broths [2, 22]: 1.485
- Optical density at 600 nm of culture broths [2, 23]: 2.121
- Expected time in continuous culture with peptide [3]: about 700 hours
